Test results: patent publication US5162347A, “Piperidine derivatives and therapeutic and preventive agents for arrhythmia containing same” (Eisai Co., Ltd., priority 1987, dated 1992)

Assays:
[1] = test system: isolated myocardium of guinea-pigs (right ventricular papillary muscles); test: Effects on the action potential duration in the isolated myocardium of guinea-pigs; type: cell-based, guinea-pigs (male, Hartley strain); conditions: Cavia porcellus, 10 min, stimulated at 1 Hz, 37° C.; for APD90 prolongation (%) at 10 µM / inhibition at 10 µM: 10^-5 M, another 10 min; for inhibition at 10 µM / inhibition at 1 µM: read-out: Vmax inhibition (%); for APD90 prolongation (%) at 1 µM / inhibition at 1 µM: 10^-6 M, first 10 min
Experimental: Right ventricular papillary muscles were isolated from male guinea-pigs of Hartley strain weighing 300 to 400 g and fixed at the bottom of an acrylic bath with pins. They were perfused with Tyrode solution kept at 37° C. and saturated with a mixture of 95% O2 and 5% CO2. The muscles were stimulated at 1 Hz with rectangular pulses of 1 msec duration and supramaximal voltage. Action potentials were recorded using conventional glass microelectrodes filled with 3M KCl. The duration of the action potential and the maximum velocity of the upstroke of the action potential (Vmax) were determined. Each of the test compounds was included in Tyrode solution at 10^-6 or 10^-5 M and perfused.
The test compounds shown in Example 1 were as follows. Sotalol, a beta-adrenoceptor antagonist was employed as the reference drug because this compound is known to prolong the duration of the myocardial action potential.
Results are shown below in terms of APD90 prolongation (%) and Vmax inhibition (%).

[2] = Acute toxicity test, intravenous injection in mice; conditions: mouse, in vivo, male ddy mice weighing 20 to 30 g
Experimental: Acute toxicity tests of typical compounds (the above-mentioned compounds A and B) of the present invention were conducted by applying them to male ddy mice weighing 20 to 30 g by intravenous injection.
Acute toxicity tests of typical compounds (the above-mentioned compounds A to E) of the present invention were conducted by applying them to male ddy mice weighing 20 to 30 g by intravenous injection.

Row | Compound | APD90 prolongation (%) at 10 µM [1] | inhibition at 10 µM [1] | APD90 prolongation (%) at 1 µM [1] | inhibition at 1 µM [1] | LD50 [2]
1 | CS(=O)(=O)Nc1ccc([S+]([O-])C2CCN(CCc3cccnc3)CC2)cc1 (centres unmarked) [compound (1) B] | 40% | 0% | 14% | 0% | 180 to 400 mg/kg
2 | Cc1cccc(CCN(C)CC(=O)c2ccc(NS(C)(=O)=O)cc2)n1 [compound (2) A] | 16% | 0% | 12% | 0% | 
3 | CCN(CCCC(=O)c1ccc(NS(C)(=O)=O)cc1)CCc1cccc(C)n1 [compound (2) D] | 31% | 0% | 17% | 0% | 
4 | CS(=O)(=O)Nc1ccc(SC2CCN(CCc3cccnc3)CC2)cc1 [compound (1) A] | 20% | 0% | 11% | 0% | 180 to 400 mg/kg
5 | Cc1cccc(CCN(C)CCCC(=O)c2ccc(NS(C)(=O)=O)cc2)n1 [compound (2) C] | 31% | 0% | 17% | 0% | 
6 | CS(=O)(=O)Nc1ccc(C(CO)N2CCC(C(=O)c3ccc(Cl)cc3)CC2)cc1 (centres unmarked) [compound (3) B] | 11% | 0% | 13% | 0% | 180 to 400 mg/kg
7 | CS(=O)(=O)Nc1ccc(C(CO)N2CCC(C(=O)c3ccc(F)cc3)CC2)cc1 (centres unmarked) [compound (3) A] | 25% | 0% | 16% | 0% | 180 to 400 mg/kg
8 | CC(C)NCC(O)c1ccc(NS(C)(=O)=O)cc1 (centres unmarked) [Sotalol, reference compound] | 7% | 0% | 0% | 0% | 
9 | Cc1cccc(CCN(C)CCC(=O)c2ccc(NS(C)(=O)=O)cc2)n1 [compound (2) B] | 19% | 0% | 18% | 0% | 
10 | Cc1cccc(CCN(C)CCCCC(=O)c2ccc(NS(C)(=O)=O)cc2)n1 [compound (2) E] | 27% | 0% | 14% | 0% | 
